IC50 and Activity data for four molecules are collected here from ChEMBL document CHEMBL1158232, “Isolation of Polyhydroxysteroids from the Gorgonian Acabaria undulata” (J Nat Prod, 1996).

Active and inactive are the calls of the source. The rule behind the calls is not given here.

One assay has as its system P388. Nature of the assay: Cytotoxicity against mouse P388 cells. The assay is classed as functional, cell-based.
For the next assay, the system named is DLD-1. As to the kind of experiment: Cytotoxicity against human DLD1 cells. The assay is classed as functional, cell-based.
In assay [1] the target is T1, Phospholipase A2 (Homo sapiens, UniProt P04054). Nature of the assay: Inhibition of PLA2.
Target sequence in this assay (P04054 whole entry): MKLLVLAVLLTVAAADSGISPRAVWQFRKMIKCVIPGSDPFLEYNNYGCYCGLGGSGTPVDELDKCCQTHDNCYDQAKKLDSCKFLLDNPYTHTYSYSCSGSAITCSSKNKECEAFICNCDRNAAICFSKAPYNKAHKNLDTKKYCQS
Assay [2] deals with T1, Phospholipase A2. As to the kind of experiment: Inhibition of PLA2 at 100 uM.
Target sequence in this assay (P04054 23-148 limits assumed): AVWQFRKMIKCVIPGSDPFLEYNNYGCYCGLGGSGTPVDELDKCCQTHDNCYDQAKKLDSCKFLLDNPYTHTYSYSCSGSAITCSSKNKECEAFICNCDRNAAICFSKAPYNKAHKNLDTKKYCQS

Consider `CC(C)CCC[C@@H](C)[C@H]1CC[C@@H]2[C@]1(C)CC[C@H]1[C@@]23O[C@@H]3[C@H](O)[C@@]2(O)C[C@@H](O)CC[C@]12C`, for which the IC50 worked out at 17.9 µM with P388, 19.6 µM in the assay with DLD-1 and 13.8 µM against Phospholipase A2 [1].

As for `CC(C)C(C)/C=C/[C@@H](C)[C@H]1CC[C@@H]2[C@]1(C)CC[C@H]1[C@@]23O[C@@H]3[C@H](O)[C@@]2(O)C[C@@H](O)CC[C@]12C` (some centres not stated), the half-inhibitory concentration (IC50) in the assay with P388 is 20.2 µM; in the assay on DLD-1, 22.4 µM. Moreover, the outcome at Phospholipase A2 [2] was inactive.

For the molecule `CC(=O)O[C@H]1CC[C@]2(C)[C@H]3CC[C@]4(C)[C@@H]([C@H](C)/C=C/CC(C)C)CC[C@H]4[C@]34O[C@@H]4[C@H](OC(C)=O)[C@@]2(O)C1`, the IC50 turned out to be 11.6 µM with P388 and 12.6 µM with DLD-1. For the same molecule, the result at Phospholipase A2 [2] was inactive.

Consider `CC(C)/C=C/[C@@H](C)[C@H]1CC[C@@H]2[C@]1(C)CC[C@H]1[C@@]23O[C@@H]3[C@H](O)[C@@]2(O)C[C@@H](O)CC[C@]12C`, for which the IC50 with P388 is 28.7 µM; in the assay with DLD-1, 24.6 µM; against Phospholipase A2 [1] it was 21.5 µM.
